Data as given in patent publication US11427558B1, “Indazoles and azaindazoles as LRRK2 inhibitors” (ESCAPE Bio, Inc., priority 2019, dated 2022).
pIC50: −log10 of the molar value.

Tests used:
[1] = molecular target: Recombinant wild type LRRK2 protein (Homo sapiens (Human), UniProt Q5S007); assay: LRRK2 kinase activity, LanthaScreen TR-FRET assay (wild type); format: biochemical; settings: LRRKtide 400 nM, 25 μM ATP, 60 min; read-out: LRRK2 WT IC50
Protocol: (§1) LRRK2 kinase activity was measured using a LanthaScreen™ Kinase Activity Assay from ThermoFisher Scientific. Recombinant wild type or G2019S-LRRK2 protein (Life Technologies, PR8604B or PV4881, respectively), was incubated with a fluorescein-labeled peptide substrate called LRRKtide that is based upon ezrin/radixin/moesin (ERM) (Life Technologies, PV4901) in the presence of ATP and serially diluted compound. […] Compound-dependent inhibition of the TR-FRET signal was used to generate a concentration-response curve for IC50 determination.
(§2) After 60 min incubation at room temperature, the reaction was stopped by addition of 10 μL of 2× stop solution containing a final concentration of 2 nM anti-pERM antibody and 10 mM EDTA. […] The ratio of the 520 nm and 495 nm emission was used to analyze the data.

[2] = molecular target: Recombinant G2019S-LRRK2 protein (Homo sapiens (Human), UniProt Q5S007, G2019S); assay: LRRK2 kinase activity, LanthaScreen TR-FRET assay (G2019S); format: biochemical; settings: LRRKtide 400 nM, 25 μM ATP, 60 min
Sequence of Recombinant G2019S-LRRK2 protein (Q5S007 whole entry G2019S): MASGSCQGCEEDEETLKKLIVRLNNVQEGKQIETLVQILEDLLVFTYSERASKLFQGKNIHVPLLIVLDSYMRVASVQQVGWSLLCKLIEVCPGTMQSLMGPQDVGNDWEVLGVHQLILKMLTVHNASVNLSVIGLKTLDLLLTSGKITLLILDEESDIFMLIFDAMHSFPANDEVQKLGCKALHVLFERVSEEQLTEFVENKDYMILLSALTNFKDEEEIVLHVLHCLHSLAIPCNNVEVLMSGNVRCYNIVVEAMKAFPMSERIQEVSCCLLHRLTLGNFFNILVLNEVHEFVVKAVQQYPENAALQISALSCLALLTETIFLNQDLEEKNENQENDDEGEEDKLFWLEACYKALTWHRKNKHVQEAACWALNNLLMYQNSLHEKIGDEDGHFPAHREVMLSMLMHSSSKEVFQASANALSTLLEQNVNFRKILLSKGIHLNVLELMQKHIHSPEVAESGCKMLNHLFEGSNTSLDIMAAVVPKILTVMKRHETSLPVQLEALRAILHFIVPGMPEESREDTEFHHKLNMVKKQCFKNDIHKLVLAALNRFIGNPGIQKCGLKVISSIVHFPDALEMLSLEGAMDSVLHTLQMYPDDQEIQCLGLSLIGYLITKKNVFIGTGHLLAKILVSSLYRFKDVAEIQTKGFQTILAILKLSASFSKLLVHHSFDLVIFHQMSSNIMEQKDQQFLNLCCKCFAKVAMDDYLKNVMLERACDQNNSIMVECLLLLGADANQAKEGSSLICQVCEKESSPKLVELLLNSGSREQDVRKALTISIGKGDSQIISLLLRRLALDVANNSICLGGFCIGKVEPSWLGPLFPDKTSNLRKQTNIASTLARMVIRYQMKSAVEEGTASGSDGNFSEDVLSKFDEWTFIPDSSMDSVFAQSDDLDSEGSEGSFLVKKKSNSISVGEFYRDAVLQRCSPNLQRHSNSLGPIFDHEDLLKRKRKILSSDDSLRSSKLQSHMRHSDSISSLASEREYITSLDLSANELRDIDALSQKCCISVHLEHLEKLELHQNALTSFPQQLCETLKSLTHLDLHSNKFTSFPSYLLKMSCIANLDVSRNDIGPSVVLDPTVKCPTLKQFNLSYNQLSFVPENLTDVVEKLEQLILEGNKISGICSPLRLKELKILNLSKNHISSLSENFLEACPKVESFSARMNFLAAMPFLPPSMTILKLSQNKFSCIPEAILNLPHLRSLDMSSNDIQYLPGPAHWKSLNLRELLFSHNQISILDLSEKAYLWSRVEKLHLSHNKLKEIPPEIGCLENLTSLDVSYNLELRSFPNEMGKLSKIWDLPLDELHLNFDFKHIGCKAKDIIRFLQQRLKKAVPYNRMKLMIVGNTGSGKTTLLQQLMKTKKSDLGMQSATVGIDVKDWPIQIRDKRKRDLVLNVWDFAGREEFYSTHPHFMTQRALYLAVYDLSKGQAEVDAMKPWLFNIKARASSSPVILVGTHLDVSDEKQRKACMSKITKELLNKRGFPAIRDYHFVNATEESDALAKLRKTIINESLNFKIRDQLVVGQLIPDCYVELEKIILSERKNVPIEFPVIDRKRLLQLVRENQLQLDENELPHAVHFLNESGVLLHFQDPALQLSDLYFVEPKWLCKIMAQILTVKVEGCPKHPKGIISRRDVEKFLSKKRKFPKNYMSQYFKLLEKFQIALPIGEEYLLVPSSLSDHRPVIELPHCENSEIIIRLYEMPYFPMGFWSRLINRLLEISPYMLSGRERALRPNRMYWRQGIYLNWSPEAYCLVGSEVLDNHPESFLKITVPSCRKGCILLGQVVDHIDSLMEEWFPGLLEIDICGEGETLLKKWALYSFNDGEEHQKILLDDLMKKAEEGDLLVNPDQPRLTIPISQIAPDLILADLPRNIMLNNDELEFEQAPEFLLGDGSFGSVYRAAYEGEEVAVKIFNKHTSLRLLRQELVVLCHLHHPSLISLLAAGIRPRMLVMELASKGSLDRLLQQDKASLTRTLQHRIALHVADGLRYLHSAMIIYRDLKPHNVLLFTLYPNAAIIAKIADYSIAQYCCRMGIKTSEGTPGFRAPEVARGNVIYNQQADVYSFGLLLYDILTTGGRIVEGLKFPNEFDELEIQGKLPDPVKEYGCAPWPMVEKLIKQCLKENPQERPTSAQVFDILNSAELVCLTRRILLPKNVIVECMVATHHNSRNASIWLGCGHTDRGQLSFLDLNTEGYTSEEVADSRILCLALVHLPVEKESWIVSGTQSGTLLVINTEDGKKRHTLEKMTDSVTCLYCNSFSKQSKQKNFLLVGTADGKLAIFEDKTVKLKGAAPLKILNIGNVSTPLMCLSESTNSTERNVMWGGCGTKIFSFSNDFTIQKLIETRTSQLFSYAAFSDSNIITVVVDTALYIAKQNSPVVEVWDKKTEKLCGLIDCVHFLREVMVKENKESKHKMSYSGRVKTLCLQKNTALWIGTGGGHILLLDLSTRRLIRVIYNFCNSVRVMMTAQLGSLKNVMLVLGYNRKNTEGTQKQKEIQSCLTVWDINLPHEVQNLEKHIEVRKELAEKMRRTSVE
Protocol: as §1, §2

Sequence of Recombinant wild type LRRK2 protein (Q5S007 whole entry): as the sequence (Q5S007 whole entry G2019S) above, with S2019G counted along it

Cc1cc(C#N)cnc1C(=O)Nc1ccc2[nH]nc(-c3cncc(N4CCOCC4)c3)c2c1 [Example 37, 5-Cyano-3-methyl-N-(3-(5-morpholinopyridin-3-yl)-1H-indazol-5-yl)picolinamide]
pIC50 [1]: 6.00 to 7.00
pIC50 [2]: > 7.00

Cc1cc(C#N)cnc1C(=O)Nc1ccc2[nH]nc(-c3ccc(OC(C)C)nc3)c2c1 [Example 38, 5-Cyano-N-(3-(6-isopropoxypyridin-3-yl)-1H-indazol-5-yl)-3-methylpicolinamide]
pIC50 [1]: 6.00 to 7.00
pIC50 [2]: > 7.00

N#Cc1cnc(C(=O)Nc2ccc3[nH]nc(-c4ccoc4)c3c2)cc1O [Example 39, 5-Cyano-N-(3-(furan-3-yl)-1H-indazol-5-yl)-4-hydroxypicolinamide]
pIC50 [1]: 5.00 to 6.00
pIC50 [2]: 5.00 to 6.00

Cc1cc(C#N)cnc1C(=O)Nc1ccc2[nH]nc(-c3ccccc3)c2c1 [Example 40, 5-Cyano-3-methyl-N-(3-phenyl-1H-indazol-5-yl)picolinamide]
pIC50 [1]: 6.00 to 7.00
pIC50 [2]: > 7.00

Cc1cc(C#N)cnc1C(=O)Nc1ccc2[nH]nc(-c3cccc(C#N)c3)c2c1 [Example 41, 5-Cyano-N-(3-(3-cyanophenyl)-1H-indazol-5-yl)-3-methylpicolinamide]
pIC50 [1]: 6.00 to 7.00
pIC50 [2]: > 7.00

Cc1cc(C#N)cnc1C(=O)Nc1ccc2[nH]nc(-c3cncc(C#N)c3)c2c1 [Example 42, 5-Cyano-N-(3-(5-cyanopyridin-3-yl)-1H-indazol-5-yl)-3-methylpicolinamide]
pIC50 [1]: 6.00 to 7.00
pIC50 [2]: > 7.00

Cc1nc(C#N)n(C)c1C(=O)Nc1ccc2[nH]nc(-c3ccccc3)c2c1 [Example 43, 2-Cyano-1,4-dimethyl-N-(3-phenyl-1H-indazol-5-yl)-1H-imidazole-5-carboxamide]
pIC50 [1]: 6.00 to 7.00
pIC50 [2]: > 7.00

Cc1cc(C#N)c(C)nc1C(=O)Nc1ccc2[nH]nc(-c3ccoc3)c2c1 [Example 44, 5-Cyano-N-(3-(furan-3-yl)-1H-indazol-5-yl)-3,6-dimethylpicolinamide]
pIC50 [1]: > 7.00
pIC50 [2]: > 7.00

Cc1cc(C#N)cnc1C(=O)Nc1ccc2[nH]nc(-c3ccc(N4CCN(C)CC4)cc3)c2c1 [Example 45, 5-Cyano-3-methyl-N-(3-(4-(4-methylpiperazin-1-yl)phenyl)-1H-indazol-5-yl)picolinamide]
pIC50 [1]: > 7.00
pIC50 [2]: > 7.00

COc1cc(F)cc(-c2n[nH]c3ccc(NC(=O)c4ncc(C#N)cc4C)cc23)c1 [Example 46, 5-Cyano-N-(3-(3-fluoro-5-methoxyphenyl)-1H-indazol-5-yl)-3-methylpicolinamide]
pIC50 [1]: 6.00 to 7.00
pIC50 [2]: > 7.00

COc1ccc(-c2n[nH]c3ccc(NC(=O)c4ncc(C#N)cc4C)cc23)cc1 [Example 47, 5-Cyano-N-(3-(4-methoxyphenyl)-1H-indazol-5-yl)-3-methylpicolinamide]
pIC50 [1]: 6.00 to 7.00
pIC50 [2]: > 7.00

COc1cc(-c2n[nH]c3ccc(NC(=O)c4ncc(C#N)cc4C)cc23)ccn1 [Example 48, 5-Cyano-N-(3-(2-methoxypyridin-4-yl)-1H-indazol-5-yl)-3-methylpicolinamide]
pIC50 [1]: 6.00 to 7.00
pIC50 [2]: > 7.00

Cc1cc(C#N)ncc1C(=O)Nc1ccc2[nH]nc(-c3ccoc3)c2c1 [Example 49, 6-Cyano-N-(3-(furan-3-yl)-1H-indazol-5-yl)-4-methylnicotinamide]
pIC50 [1]: 6.00 to 7.00
pIC50 [2]: > 7.00

Cc1cc(C#N)cnc1C(=O)Nc1ccc2[nH]nc(-c3cccnc3)c2c1 [Example 50, 5-Cyano-3-methyl-N-(3-(pyridin-3-yl)-1H-indazol-5-yl)picolinamide]
pIC50 [1]: 6.00 to 7.00
pIC50 [2]: > 7.00

Cc1cc(-c2n[nH]c3ccc(NC(=O)c4ncc(C#N)cc4C)cc23)ccc1F [Example 51, 5-Cyano-N-(3-(4-fluoro-3-methylphenyl)-1H-indazol-5-yl)-3-methylpicolinamide]
pIC50 [1]: 6.00 to 7.00
pIC50 [2]: > 7.00

COc1ccc(-c2n[nH]c3ccc(NC(=O)c4ncc(C#N)cc4C)cc23)cn1 [Example 52, 5-Cyano-N-(3-(6-methoxypyridin-3-yl)-1H-indazol-5-yl)-3-methylpicolinamide]
pIC50 [1]: 6.00 to 7.00
pIC50 [2]: > 7.00

COc1cccc(-c2n[nH]c3ccc(NC(=O)c4ncc(C#N)cc4C)cc23)c1 [Example 53, 5-Cyano-N-(3-(3-methoxyphenyl)-1H-indazol-5-yl)-3-methylpicolinamide]
pIC50 [1]: 6.00 to 7.00
pIC50 [2]: > 7.00

Cc1cc(C#N)cnc1C(=O)Nc1ccc2[nH]nc(-c3cccc(OC(F)(F)F)c3)c2c1 [Example 54, 5-Cyano-3-methyl-N-(3-(3-(trifluoromethoxy)phenyl)-1H-indazol-5-yl)picolinamide]
pIC50 [1]: 5.00 to 6.00
pIC50 [2]: 6.00 to 7.00

Cc1ccc(-c2n[nH]c3ccc(NC(=O)c4ncc(C#N)cc4C)cc23)cn1 [Example 55, 5-Cyano-3-methyl-N-(3-(6-methylpyridin-3-yl)-1H-indazol-5-yl)picolinamide]
pIC50 [1]: 6.00 to 7.00
pIC50 [2]: > 7.00

Cc1ccc(-c2n[nH]c3ccc(NC(=O)c4ncc(C#N)cc4C)cc23)cc1 [Example 56, 5-Cyano-3-methyl-N-(3-(p-tolyl)-1H-indazol-5-yl)picolinamide]
pIC50 [1]: 6.00 to 7.00
pIC50 [2]: > 7.00

Cc1cc(C#N)cnc1C(=O)Nc1ccc2[nH]nc(-c3cnn(C)c3)c2c1 [Example 57, 5-Cyano-3-methyl-N-(3-(1-methyl-1H-pyrazol-4-yl)-1H-indazol-5-yl)picolinamide]
pIC50 [1]: > 7.00
pIC50 [2]: > 7.00

Cc1cccc(-c2n[nH]c3ccc(NC(=O)c4ncc(C#N)cc4C)cc23)c1 [Example 58, 5-Cyano-3-methyl-N-(3-(m-tolyl)-1H-indazol-5-yl)picolinamide]
pIC50 [1]: 6.00 to 7.00
pIC50 [2]: > 7.00

Cc1cc(C#N)cnc1C(=O)Nc1ccc2[nH]nc(-c3cccc(C(F)(F)F)c3)c2c1 [Example 59, 5-Cyano-3-methyl-N-(3-(3-(trifluoromethyl)phenyl)-1H-indazol-5-yl)picolinamide]
pIC50 [1]: 6.00 to 7.00
pIC50 [2]: > 7.00

Cc1cc(C#N)cnc1C(=O)Nc1ccc2[nH]nc(-c3ccc(C(F)(F)F)nc3)c2c1 [Example 60, 5-Cyano-3-methyl-N-(3-(6-(trifluoromethyl)pyridin-3-yl)-1H-indazol-5-yl)picolinamide]
pIC50 [1]: 5.00 to 6.00
pIC50 [2]: 6.00 to 7.00

Cc1cc(F)cc(-c2n[nH]c3ccc(NC(=O)c4ncc(C#N)cc4C)cc23)c1 [Example 61, 5-Cyano-N-(3-(3-fluoro-5-methylphenyl)-1H-indazol-5-yl)-3-methylpicolinamide]
pIC50 [1]: 6.00 to 7.00
pIC50 [2]: > 7.00

Cc1cc(C#N)cnc1C(=O)Nc1ccc2[nH]nc(-c3cccc(C4CC4)c3)c2c1 [Example 62, 5-cyano-N-(3-(3-cyclopropylphenyl)-1H-indazol-5-yl)-3-methylpicolinamide]
pIC50 [1]: 6.00 to 7.00
pIC50 [2]: > 7.00

Cc1ccc(-c2n[nH]c3ccc(NC(=O)c4ncc(C#N)cc4C)cc23)cc1F [Example 63, 5-Cyano-N-(3-(3-fluoro-4-methylphenyl)-1H-indazol-5-yl)-3-methylpicolinamide]
pIC50 [1]: 6.00 to 7.00
pIC50 [2]: > 7.00

N#Cc1cnc(C(=O)Nc2ccc3[nH]nc(-c4ccoc4)c3c2)c(C(F)F)c1 [Example 64, 5-Cyano-3-(difluoromethyl)-N-(3-(furan-3-yl)-1H-indazol-5-yl)picolinamide]
pIC50 [1]: 6.00 to 7.00
pIC50 [2]: > 7.00

N#Cc1cnc(C(=O)Nc2ccc3[nH]nc(-c4ccoc4)c3c2)s1 [Example 65, 5-Cyano-N-(3-(furan-3-yl)-1H-indazol-5-yl)thiazole-2-carboxamide]
pIC50 [1]: > 7.00
pIC50 [2]: > 7.00

N#Cc1cnc(C(=O)Nc2ccc3[nH]nc(-c4ccoc4)c3c2)cc1Cl [Example 66, 4-Chloro-5-cyano-N-(3-(furan-3-yl)-1H-indazol-5-yl)picolinamide]
pIC50 [1]: 6.00 to 7.00
pIC50 [2]: 6.00 to 7.00

Cc1c(C#N)cnc(C(=O)Nc2ccc3[nH]nc(-c4ccoc4)c3c2)c1C [Example 67, 5-Cyano-N-(3-(furan-3-yl)-1H-indazol-5-yl)-3,4-dimethylpicolinamide]
pIC50 [1]: > 7.00
pIC50 [2]: > 7.00

COc1cncc(-c2n[nH]c3ccc(NC(=O)c4ncc(C#N)cc4C)cc23)c1 [Example 68, 5-Cyano-N-(3-(5-methoxypyridin-3-yl)-1H-indazol-5-yl)-3-methylpicolinamide]
pIC50 [1]: 6.00 to 7.00
pIC50 [2]: > 7.00

COc1cc(C#N)cnc1C(=O)Nc1ccc2[nH]nc(-c3ccoc3)c2c1 [Example 69, 5-Cyano-N-(3-(furan-3-yl)-1H-indazol-5-yl)-3-methoxypicolinamide]
pIC50 [1]: 6.00 to 7.00
pIC50 [2]: > 7.00

Cc1cc(C#N)cnc1C(=O)Nc1ccc2[nH]nc(-c3ccc(N4CCOCC4)cc3)c2c1 [Example 70, 5-Cyano-3-methyl-N-(3-(4-morpholinophenyl)-1H-indazol-5-yl)picolinamide]
pIC50 [1]: 6.00 to 7.00
pIC50 [2]: > 7.00

Cc1cc(C#N)cnc1C(=O)Nc1ccc2[nH]nc(-c3ccc4ocnc4c3)c2c1 [Example 71, N-(3-(Benzo[d]oxazol-5-yl)-1H-indazol-5-yl)-5-cyano-3-methylpicolinamide]
pIC50 [1]: 6.00 to 7.00
pIC50 [2]: > 7.00

COc1c(C#N)cccc1C(=O)Nc1ccc2[nH]nc(-c3ccoc3)c2c1 [Example 72, 3-Cyano-N-(3-(furan-3-yl)-1H-indazol-5-yl)-2-methoxybenzamide]
pIC50 [1]: > 7.00
pIC50 [2]: > 7.00

Cc1cc(C#N)cnc1C(=O)Nc1ccc2[nH]nc(-c3ccsc3)c2c1 [Example 73, 5-Cyano-3-methyl-N-(3-(thiophen-3-yl)-1H-indazol-5-yl)picolinamide]
pIC50 [1]: 6.00 to 7.00
pIC50 [2]: > 7.00
